Measurements reported in article PMC11528470, “Evidence for the Quercetin Binding Site of Glycogen Phosphorylase as a Target for Liver-Isoform-Selective Inhibitors against Glioblastoma: Investigation of Flavanols Epigallocatechin Gallate and Epigallocatechin” (Journal of Agricultural and Food Chemistry, 2024).
Where two headings read alike, the source gives them in different places.

How the values were obtained:
[1] = molecular target: T1, Rabbit skeletal muscle glycogen phosphorylase b (rmGPb) (Oryctolagus cuniculus, UniProt P00489); experiment: X-ray crystal structure ([…] Å) plus enzyme kinetics (noncompetitive Ki); format: biochemical
T1 construct: gene PYGM
T1 sequence (P00489 2-843): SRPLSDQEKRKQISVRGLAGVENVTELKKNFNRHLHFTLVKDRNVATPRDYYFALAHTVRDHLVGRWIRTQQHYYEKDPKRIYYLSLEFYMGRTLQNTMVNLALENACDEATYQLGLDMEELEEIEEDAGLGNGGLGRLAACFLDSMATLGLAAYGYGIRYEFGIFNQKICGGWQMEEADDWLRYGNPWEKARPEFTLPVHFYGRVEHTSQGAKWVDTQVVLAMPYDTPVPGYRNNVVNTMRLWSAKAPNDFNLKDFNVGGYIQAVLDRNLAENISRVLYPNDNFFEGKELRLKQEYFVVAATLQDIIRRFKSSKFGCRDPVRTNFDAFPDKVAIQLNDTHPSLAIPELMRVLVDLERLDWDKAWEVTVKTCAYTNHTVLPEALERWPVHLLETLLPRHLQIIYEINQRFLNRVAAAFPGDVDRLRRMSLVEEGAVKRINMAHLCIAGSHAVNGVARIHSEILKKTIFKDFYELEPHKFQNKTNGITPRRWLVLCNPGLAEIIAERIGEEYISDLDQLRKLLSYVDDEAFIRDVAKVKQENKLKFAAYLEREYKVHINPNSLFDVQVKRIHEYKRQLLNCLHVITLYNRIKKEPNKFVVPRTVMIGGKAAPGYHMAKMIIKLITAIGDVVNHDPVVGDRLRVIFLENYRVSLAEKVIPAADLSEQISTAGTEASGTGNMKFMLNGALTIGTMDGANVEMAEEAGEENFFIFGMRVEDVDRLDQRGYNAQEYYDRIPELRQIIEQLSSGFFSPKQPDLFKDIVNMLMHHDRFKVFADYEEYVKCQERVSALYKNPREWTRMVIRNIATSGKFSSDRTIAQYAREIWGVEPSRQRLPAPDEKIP

[2] = molecular target: T2, human liver glycogen phosphorylase a (hlGPa) (Homo sapiens, UniProt P06737); experiment: enzyme kinetics on purified hlGPa, Lineweaver–Burk; format: biochemical
T2 construct: gene PYGL
T2 sequence (P06737 2-847): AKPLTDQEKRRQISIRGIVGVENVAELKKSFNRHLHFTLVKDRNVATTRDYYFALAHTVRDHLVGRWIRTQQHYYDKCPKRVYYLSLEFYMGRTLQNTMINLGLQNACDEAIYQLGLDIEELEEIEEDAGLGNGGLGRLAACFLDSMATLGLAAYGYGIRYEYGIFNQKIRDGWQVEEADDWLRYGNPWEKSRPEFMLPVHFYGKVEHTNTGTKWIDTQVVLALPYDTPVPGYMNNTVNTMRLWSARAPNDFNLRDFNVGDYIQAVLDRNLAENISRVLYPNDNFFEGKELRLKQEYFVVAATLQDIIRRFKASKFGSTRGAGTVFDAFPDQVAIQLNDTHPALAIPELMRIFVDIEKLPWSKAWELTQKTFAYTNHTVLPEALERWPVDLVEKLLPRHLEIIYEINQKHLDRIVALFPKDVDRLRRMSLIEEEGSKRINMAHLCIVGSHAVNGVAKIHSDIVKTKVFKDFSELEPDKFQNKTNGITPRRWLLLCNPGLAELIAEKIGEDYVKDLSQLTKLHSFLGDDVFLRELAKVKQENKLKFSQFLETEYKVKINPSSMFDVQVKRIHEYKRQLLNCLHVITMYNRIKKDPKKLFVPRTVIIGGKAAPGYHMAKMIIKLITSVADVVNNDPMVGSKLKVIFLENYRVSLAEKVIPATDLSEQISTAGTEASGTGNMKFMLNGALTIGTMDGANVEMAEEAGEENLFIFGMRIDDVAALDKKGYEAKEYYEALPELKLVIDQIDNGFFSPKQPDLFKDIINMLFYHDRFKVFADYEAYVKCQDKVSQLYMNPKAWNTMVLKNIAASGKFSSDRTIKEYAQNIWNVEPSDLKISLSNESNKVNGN

[3] = molecular target: T2, human liver glycogen phosphorylase a (hlGPa); experiment: enzyme inhibition assay on purified hlGPa; format: biochemical
[4] = molecular target: T1, Rabbit skeletal muscle glycogen phosphorylase b (rmGPb); experiment: X-ray crystal structure ([…] Å) plus enzyme kinetics (noncompetitive Ki); format: biochemical; remark: listed apart in the source
[5] = molecular target: T1, Rabbit skeletal muscle glycogen phosphorylase b (rmGPb)
[6] = molecular target: T1, Rabbit skeletal muscle glycogen phosphorylase b (rmGPb); experiment: X-ray crystal structure of ternary rmGPb-EGCG-glucose complex ([…] Å); multiple inhibition kinetics; format: binding

O=C(O[C@@H]1Cc2c(O)cc(O)cc2O[C@@H]1c1cc(O)c(O)c(O)c1)c1cc(O)c(O)c(O)c1 [EGCG]
Ki [1]: 49.8 ± 1.6 µM | Ki [2]: 17.6 ± 0.7 µM

Oc1cc(O)c2c(c1)O[C@H](c1cc(O)c(O)c(O)c1)[C@H](O)C2 [EGC]
IC50 [3]: 194 ± 3.5 µM | Ki [4]: 286 ± 14.1 µM

Cn1c(=O)c2c(ncn2C)n(C)c1=O [caffeine]
X-ray crystal structure of ternary rmGPb-EGCG-caffeine complex (2.5 Å); multiple [5]: EGCG can bind at the QBS simultaneously with glucose at the catalytic site or caffeine at the inhibitor site

OC[C@H]1OC(O)[C@H](O)[C@@H](O)[C@@H]1O (stereo partly drawn) [glucose]
X-ray crystal structure of ternary rmGPb-EGCG-glucose complex (2.0 Å); multiple [6]: EGCG can bind at the QBS simultaneously with glucose at the catalytic site or caffeine at the inhibitor site
